The structures appear in SMILES notation.

Consider two molecules from article PMC8632246, “KCNQ and KCNE Isoform-Dependent Pharmacology Rationalizes Native American Dual Use of Specific Plants as Both Analgesics and Gastrointestinal Therapeutics” (Frontiers in Physiology, 2021).

Test [1] addresses T1, KCNQ1 (Homo sapiens, UniProt P51787).
T1 construct: homomeric human KCNQ1 expressed in Xenopus oocytes
T1 sequence (P51787 1-676): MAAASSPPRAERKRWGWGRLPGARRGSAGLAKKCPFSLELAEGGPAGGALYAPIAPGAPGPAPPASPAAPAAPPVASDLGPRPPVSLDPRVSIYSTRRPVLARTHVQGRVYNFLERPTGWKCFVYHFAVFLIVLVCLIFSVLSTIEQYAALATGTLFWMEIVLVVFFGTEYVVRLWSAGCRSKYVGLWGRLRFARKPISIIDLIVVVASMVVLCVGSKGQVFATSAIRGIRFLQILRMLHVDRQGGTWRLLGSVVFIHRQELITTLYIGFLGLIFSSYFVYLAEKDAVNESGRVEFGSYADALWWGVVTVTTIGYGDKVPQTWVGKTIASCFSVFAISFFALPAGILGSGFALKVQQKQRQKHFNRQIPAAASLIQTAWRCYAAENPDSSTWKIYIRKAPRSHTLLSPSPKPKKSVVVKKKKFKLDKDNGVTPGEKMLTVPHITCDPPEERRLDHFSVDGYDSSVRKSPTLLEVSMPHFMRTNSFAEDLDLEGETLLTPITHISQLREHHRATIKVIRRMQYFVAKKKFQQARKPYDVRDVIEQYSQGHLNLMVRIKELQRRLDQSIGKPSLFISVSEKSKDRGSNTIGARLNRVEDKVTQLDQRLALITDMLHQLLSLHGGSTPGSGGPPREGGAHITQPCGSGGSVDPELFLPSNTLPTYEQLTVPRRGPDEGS
Description: two-electrode voltage clamp in Xenopus oocytes, […] quercetin. It counts as cell-based. A general note: Two-electrode voltage clamp is typically applied to oocytes expressing channels or transporters.

Test [2] has as its target T2, KCNQ2/3 (KCNQ3 subunit) (Homo sapiens, UniProt O43525+O43526).
T2 construct: human KCNQ2/3 heteromeric channel expressed in Xenopus oocytes; with KCNQ2
Description: two-electrode voltage clamp in Xenopus oocytes, dose response at -70 mV; WL/WL and RA/RA mutants insensitive. It counts as cell-based.

T2 sequence (O43525 whole entry): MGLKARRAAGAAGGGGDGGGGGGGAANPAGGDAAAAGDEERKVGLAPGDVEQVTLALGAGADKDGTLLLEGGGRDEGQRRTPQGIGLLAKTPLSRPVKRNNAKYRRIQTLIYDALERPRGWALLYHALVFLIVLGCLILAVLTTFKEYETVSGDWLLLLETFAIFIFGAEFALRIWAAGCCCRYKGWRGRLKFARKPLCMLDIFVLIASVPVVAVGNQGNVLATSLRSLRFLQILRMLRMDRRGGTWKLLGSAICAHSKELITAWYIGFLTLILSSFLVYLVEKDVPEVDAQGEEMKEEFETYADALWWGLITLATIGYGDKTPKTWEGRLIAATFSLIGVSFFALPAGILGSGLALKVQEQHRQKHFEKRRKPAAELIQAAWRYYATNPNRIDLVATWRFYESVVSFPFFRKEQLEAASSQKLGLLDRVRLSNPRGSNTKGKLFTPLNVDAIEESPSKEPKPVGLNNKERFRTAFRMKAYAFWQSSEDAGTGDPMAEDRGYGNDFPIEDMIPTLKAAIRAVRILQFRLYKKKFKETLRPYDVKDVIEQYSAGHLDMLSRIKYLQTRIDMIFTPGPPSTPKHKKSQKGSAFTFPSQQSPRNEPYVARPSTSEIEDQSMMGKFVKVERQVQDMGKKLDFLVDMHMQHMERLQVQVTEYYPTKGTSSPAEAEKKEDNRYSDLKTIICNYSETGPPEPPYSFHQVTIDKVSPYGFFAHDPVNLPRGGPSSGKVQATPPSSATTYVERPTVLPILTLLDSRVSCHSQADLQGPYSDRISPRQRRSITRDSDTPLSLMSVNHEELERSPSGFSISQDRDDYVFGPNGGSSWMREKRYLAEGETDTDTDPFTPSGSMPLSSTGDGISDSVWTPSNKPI
T2 sequence (O43526 whole entry): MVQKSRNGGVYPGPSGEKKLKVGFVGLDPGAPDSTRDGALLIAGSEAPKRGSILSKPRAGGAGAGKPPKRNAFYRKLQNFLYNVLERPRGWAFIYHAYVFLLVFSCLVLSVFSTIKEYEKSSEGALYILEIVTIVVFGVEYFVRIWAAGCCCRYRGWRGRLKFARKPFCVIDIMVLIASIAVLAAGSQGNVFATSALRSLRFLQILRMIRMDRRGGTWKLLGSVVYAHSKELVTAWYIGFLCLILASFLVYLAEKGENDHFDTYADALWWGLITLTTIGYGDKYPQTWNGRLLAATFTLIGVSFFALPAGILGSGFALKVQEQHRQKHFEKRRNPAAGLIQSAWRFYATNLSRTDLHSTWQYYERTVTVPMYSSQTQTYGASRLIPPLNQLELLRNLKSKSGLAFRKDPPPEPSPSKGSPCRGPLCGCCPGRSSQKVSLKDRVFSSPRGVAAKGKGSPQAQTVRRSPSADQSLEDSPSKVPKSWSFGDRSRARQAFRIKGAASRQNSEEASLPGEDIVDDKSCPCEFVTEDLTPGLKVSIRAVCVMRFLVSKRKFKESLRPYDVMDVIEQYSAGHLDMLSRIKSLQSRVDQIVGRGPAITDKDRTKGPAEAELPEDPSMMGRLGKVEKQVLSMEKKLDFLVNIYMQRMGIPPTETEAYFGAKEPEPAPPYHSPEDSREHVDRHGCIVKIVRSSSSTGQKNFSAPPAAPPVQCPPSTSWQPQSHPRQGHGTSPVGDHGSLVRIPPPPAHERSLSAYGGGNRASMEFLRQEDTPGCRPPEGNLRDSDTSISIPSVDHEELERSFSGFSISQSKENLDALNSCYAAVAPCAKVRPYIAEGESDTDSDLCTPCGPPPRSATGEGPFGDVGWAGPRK

With `O=c1c(O)c(-c2ccc(O)c(O)c2)oc2cc(O)cc(O)c12` [quercetin], in test [1], the “two-electrode voltage clamp in Xenopus oocytes, 100 uM quercetin” value is “quercetin enhances both activation and inactivation of homomeric KCNQ1 channels, inducing visible voltage-dependent decay at depolarized potentials”.
With `O=C(O)c1cc(O)c(O)c(O)c1` [gallic acid], in test [2], the EC50 (usually the concentration that produces a half-maximal response) was determined as 560 ± 3 nM.
